Source: patent US11517729B2, “Integrated fiber microneedle device for drug and vaccine delivery” (University of Washington, priority 2018, dated 2022)

Test: Release studies of integrated fiber microneedles in PBS
Format: physicochemical
Experimental: A small molecule drug, a model protein, and plasmid DNA were loaded into individual devices and the release kinetics of each were measured. These agents were loaded into an array of 420 needles, with a total device size of 4.2 cm^2. In this experiment, the needles were 350 μm in diameter and 800 μm tall. […] Each agent was successfully loaded into the fiber-microneedle system using a loading of 100 μg for the small molecule, […] for the protein, and 1.1 μg for the DNA. […] This plateau occurred at different percent release for the different agents. The small molecule plateaued at 70% release, the protein plateaued at 35% release, and the plasmid DNA plateaued around 80% release. […]
Data represent release from a single array of integrated fiber microneedles. Complete (100%) release was determined by TFV detected in release media after 84 days. […] 100% release was determined by DNA detected in release media after 25 days.
Microneedle characterization: SEM imaging of electrospun fibers on the two-layer composite microneedle molds and completed microneedles was performed on a JEOL JSM7400F cold field emission scanning electron microscope. […] TFV content was determined by HPLC (Shimadzu Prominence LC20AD UV-HPLC) with a Phenomenex Luna 153 C18 column and LCSolutions software. […] The column was heated to 30° C., and TFV was detected at 259 nm. BSA content was analyzed by the Pierce MicroBCA Assay. […]

With `C[C@H](Cn1cnc2c(N)ncnc21)OCP(=O)(O)O` [TFV, tenofovir] the “plateau of percent release” value (TFV from integrated fiber microneedles into PBS, HPLC, 100% = TFV detected in release media after 84 days, single array) was 70% and the release profile (from integrated fiber microneedles (array of 420 needles) into PBS) was “sharp initial burst release followed by a plateau”.
